According to patent publication US12448399B2, “Cereblon-based KRAS degrading PROTACs and uses related thereto” (Arvinas Operations, Inc., priority 2023, dated 2025):

Target: T1, KRas-G12D (Homo sapiens, UniProt P01116, G12D)
T1 construct: insert the HiBiT tag onto the N-terminus of one or more of the endogenous KRas alleles; host or cells: AsPC-1 HiBiT-KRasG12D knock-in clone (one tagged allele, two untagged KRasG12D alleles)
Assay: HiBiT Degradation Assay (G12D), AsPC-1 HiBiT-KRasG12D cells, 24 hr
Assay type: cell-based
Conditions: for Dmax: ASPC1, AsPC-1 cells, maximum degradation observed; for DC50: AsPC-1 cells
Summary of the method: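 Degradation was read after 24 hr compound exposure (0.5% DMSO, 37° C) by Nano-Glo HiBiT lytic luminescence in AsPC-1 cells carrying a HiBiT tag on one of three KRasG12D alleles. Signal relative to DMSO gave DC50 and Dmax by 4-parameter fit; alamar blue fluorescence monitored cytotoxicity.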

T1 sequence (P01116 1-188 isoform P01116-2 G12D): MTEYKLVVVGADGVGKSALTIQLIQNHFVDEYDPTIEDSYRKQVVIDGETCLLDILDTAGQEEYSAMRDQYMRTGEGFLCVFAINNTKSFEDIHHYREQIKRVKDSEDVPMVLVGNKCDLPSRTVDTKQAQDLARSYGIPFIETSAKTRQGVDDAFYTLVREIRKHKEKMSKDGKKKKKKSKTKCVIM

| SMILES | Dmax | DC50 |
| --- | --- | --- |
| C#Cc1c(F)ccc2cc(O)cc(-c3ncc4c(N5CC6CCC(C5)N6)nc(OCCN5CCC(CCC6CCN(c7cccc8c7CN(C7CCC(=O)NC7=O)C8=O)CC6)CC5)nc4c3F)c12 (stereo not shown) [Compound 128, 3-(4-{4-[2-(1-{2-[(4-{3,8-diazabicyclo[3.2.1]octan-3-yl}-7-(8-ethynyl-7-fluoro-3-hydroxynaphthalen-1-yl)-8-fluoropyrido[4,3-d]pyrimidin-2-yl)oxy]ethyl}piperidin-4-yl)ethyl]piperidin-1-yl}-1-oxo-2,3-dihydro-1H-isoindol-2-yl)piperidine-2,6-dione] | > 70% | 0.1 to 5.25 µM |
| C#Cc1c(F)ccc2cc(O)cc(-c3ncc4c(N5CC6CCC(C5)N6)nc(OCCN5CCC(CC6CCN(c7cccc8c7n(C)c(=O)n8C7CCC(=O)NC7=O)CC6)CC5)nc4c3F)c12 (stereo not shown) [Compound 129, 3-(4-{4-[(1-{2-[(4-{3,8-diazabicyclo[3.2.1]octan-3-yl}-7-(8-ethynyl-7-fluoro-3-hydroxynaphthalen-1-yl)-8-fluoropyrido[4,3-d]pyrimidin-2-yl)oxy]ethyl}piperidin-4-yl)methyl]piperidin-1-yl}-3-methyl-2-oxo-2,3-dihydro-1H-1,3-benzodiazol-1-yl)piperidine-2,6-dione] | > 70% | < 5.1 µM |
| C#Cc1c(F)ccc2cc(O)cc(-c3ncc4c(N5CC6CCC(C5)N6)nc(OCCN5CCC(CC6CCN(CC7CCN(c8cc(F)cc9c8CN(C8CCC(=O)NC8=O)C9=O)CC7)CC6)CC5)nc4c3F)c12 (stereo not shown) [Compound 130, 3-{4-[4-({4-[(1-{2-[(4-{3,8-diazabicyclo[3.2.1]octan-3-yl}-7-(8-ethynyl-7-fluoro-3-hydroxynaphthalen-1-yl)-8-fluoropyrido[4,3-d]pyrimidin-2-yl)oxy]ethyl}piperidin-4-yl)methyl]piperidin-1-yl}methyl)piperidin-1-yl]-6-fluoro-1-oxo-2,3-dihydro-1H-isoindol-2-yl}piperidine-2,6-dione] | > 70% | < 5.1 µM |
| C#Cc1c(F)ccc2cc(O)cc(-c3ncc4c(N5CC6CCC(C5)N6)nc(OCCN5CCC(CC6(F)CCN(CC7CCN(c8cccc9c8CN(C8CCC(=O)NC8=O)C9=O)CC7)CC6)CC5)nc4c3F)c12 (stereo not shown) [Compound 131, 3-{4-[4-({4-[(1-{2-[(4-{3,8-diazabicyclo[3.2.1]octan-3-yl}-7-(8-ethynyl-7-fluoro-3-hydroxynaphthalen-1-yl)-8-fluoropyrido[4,3-d]pyrimidin-2-yl)oxy]ethyl}piperidin-4-yl)methyl]-4-fluoropiperidin-1-yl}methyl)piperidin-1-yl]-1-oxo-2,3-dihydro-1H-isoindol-2-yl}piperidine-2,6-dione] | > 70% | < 5.1 µM |
| C#Cc1c(F)ccc2cc(O)cc(-c3ncc4c(N5CC6CCC(C5)N6)nc(OCCN5CCC6(CC5)CCN(CC5CCN(c7cccc8c7CN(C7CCC(=O)NC7=O)C8=O)CC5)CC6)nc4c3F)c12 (stereo not shown) [Compound 132, 3-(4-{4-[(9-{2-[(4-{3,8-diazabicyclo[3.2.1]octan-3-yl}-7-(8-ethynyl-7-fluoro-3-hydroxynaphthalen-1-yl)-8-fluoropyrido[4,3-d]pyrimidin-2-yl)oxy]ethyl}-3,9-diazaspiro[5.5]undecan-3-yl)methyl]piperidin-1-yl}-1-oxo-2,3-dihydro-1H-isoindol-2-yl)piperidine-2,6-dione] | > 70% | < 5.1 µM |
| C#Cc1c(F)ccc2cc(O)cc(-c3ncc4c(N5CC6CCC(C5)N6)nc(OCCN5CCC(CC6CCN(CC7CCN(c8cccc9c8n(C)c(=O)n9C8CCC(=O)NC8=O)CC7)CC6)CC5)nc4c3F)c12 (stereo not shown) [Compound 133, 3-{4-[4-({4-[(1-{2-[(4-{3,8-diazabicyclo[3.2.1]octan-3-yl}-7-(8-ethynyl-7-fluoro-3-hydroxynaphthalen-1-yl)-8-fluoropyrido[4,3-d]pyrimidin-2-yl)oxy]ethyl}piperidin-4-yl)methyl]piperidin-1-yl}methyl)piperidin-1-yl]-3-methyl-2-oxo-2,3-dihydro-1H-1,3-benzodiazol-1-yl}piperidine-2,6-dione] | > 70% | < 5.1 µM |
| C#Cc1c(F)ccc2cc(O)cc(-c3nc(N4CC5CCC(C4)N5)c4cnc(OCCN5CCC6(CC5)CCN(CC5CCN(c7ccc8c(c7)CN(C7CCC(=O)NC7=O)C8=O)CC5)CC6)nc4c3F)c12 (stereo not shown) [Compound 134] | > 70% | < 5.1 µM |
| C#Cc1c(F)ccc2cc(O)cc(-c3ncc4c(N5CC6CCC(C5)N6)nc(OCCN5CCC6(CC5)CN(CC5CCN(c7cccc8c7CN(C7CCC(=O)NC7=O)C8=O)CC5)C6)nc4c3F)c12 (stereo not shown) [Compound 135, 3-(4-{4-[(7-{2-[(4-{3,8-diazabicyclo[3.2.1]octan-3-yl}-7-(8-ethynyl-7-fluoro-3-hydroxynaphthalen-1-yl)-8-fluoropyrido[4,3-d]pyrimidin-2-yl)oxy]ethyl}-2,7-diazaspiro[3.5]nonan-2-yl)methyl]piperidin-1-yl}-1-oxo-2,3-dihydro-1H-isoindol-2-yl)piperidine-2,6-dione] |  | 0.25 to 1 µM |
| C#Cc1c(F)ccc2cc(O)cc(-c3ncc4c(N5CC6CCC(C5)N6)nc(OCCN5CCC(CN6CCN(CC7CCN(c8cccc9c8CN(C8CCC(=O)NC8=O)C9=O)CC7)CC6)CC5)nc4c3F)c12 (stereo not shown) [Compound 136, 3-{4-[4-({4-[(1-{2-[(4-{3,8-diazabicyclo[3.2.1]octan-3-yl}-7-(8-ethynyl-7-fluoro-3-hydroxynaphthalen-1-yl)-8-fluoropyrido[4,3-d]pyrimidin-2-yl)oxy]ethyl}piperidin-4-yl)methyl]piperazin-1-yl}methyl)piperidin-1-yl]-1-oxo-2,3-dihydro-1H-isoindol-2-yl}piperidine-2,6-dione] | > 70% | < 5.1 µM |
| CCc1c(F)ccc2cc(O)cc(-c3ncc4c(N5CC6CCC(C5)N6)nc(OCCN5CCC(CC6CCN(CC7CCN(c8cccc9c8CN(C8CCC(=O)NC8=O)C9=O)CC7)CC6)CC5)nc4c3F)c12 (stereo not shown) [Compound 137, 3-{4-[4-({4-[(1-{2-[(4-{3,8-diazabicyclo[3.2.1]octan-3-yl}-7-(8-ethyl-7-fluoro-3-hydroxynaphthalen-1-yl)-8-fluoropyrido[4,3-d]pyrimidin-2-yl)oxy]ethyl}piperidin-4-yl)methyl]piperidin-1-yl}methyl)piperidin-1-yl]-1-oxo-2,3-dihydro-1H-isoindol-2-yl}piperidine-2,6-dione] |  | < 5.1 µM |
| C#Cc1c(F)ccc2cc(O)cc(-c3ncc4c(N5CC6CCC(C5)N6)nc(OCCN5CCC(CC6CCN(CC7CCN(c8ccc9c(c8)CN(C8CCC(=O)NC8=O)C9=O)CC7)CC6)CC5)nc4c3F)c12 (stereo not shown) [Compound 138] | > 70% | < 5.1 µM |
| CCc1cccc2cc(O)cc(-c3ncc4c(N5CC6CCC(C5)N6)nc(OC[C@@H]5C[C@@H](OC6CCN(CC7CCN(c8cccc9c8CN(C8CCC(=O)NC8=O)C9=O)CC7)CC6)CN5C)nc4c3F)c12 (stereo partly drawn) [Compound 139, 3-(4-{4-[(4-{[(3R,5S)-5-{[(4-{3,8-diazabicyclo[3.2.1]octan-3-yl}-7-(8-ethyl-3-hydroxynaphthalen-1-yl)-8-fluoropyrido[4,3-d]pyrimidin-2-yl)oxy]methyl}-1-methylpyrrolidin-3-yl]oxy}piperidin-1-yl)methyl]piperidin-1-yl}-1-oxo-2,3-dihydro-1H-isoindol-2-yl)piperidine-2,6-dione] | > 70% | < 5.1 µM |
